# “Also recorded” adds a separate entry of the source.
# Experiments:
# [1] = Plasma glucose levels in diabetic mice; type: in vivo, mouse; settings: 2 mM NAC for 3 weeks, 4 week diabetic mice
# Description: Plasma levels in diabetic mice were elevated at ˜[…] which was 3-fold higher than controls (˜200 mg/dL). The percent (%) brain infarct area in vehicle- and STZ treated mice is linearly correlated with the plasma glucose level.
# Four-week-old male C57BL/6J mice, weighing 18-20 g, were purchased from Jackson Laboratory. These mice were maintained at the Animal Facility of the Louisiana State University Health Sciences Center—Shreveport. Animal care and use in the experiments follow the guidelines in the Guide for the Care and Use of Laboratory Animals, published by the US National Institutes of Health. Following adaptation for 1 week, the mice were divided randomly into 4 groups: non-treated sham operation group (NT-sham group, n=6), non-treated I/R group (NT-I/R group, n=5), vehicle I/R group (Veh-I/R group, n=24), and streptozotocin I/R group (STZ-I/R group, n=19). […] On day 7, mice whose plasma glucose was more than 300 mg/dl were deemed to be diabetic. […] Another Veh-treated mice were injected (intraperitoneally, 12 hr interval) with 0.5M BSO 24 h before the ischemia operation and during the 24 h reperfusion period (Veh+BSO group, n=10). All mice were 9 weeks old at sacrifice.
# STZ diabetic mice = assay: Tail bleed time as measure of coagulation; type: in vivo, mouse; settings: 20 week diabetic mice; NAC 2 mM in drinking water for 3 weeks
# Description: Turning to FIG. 24, as a measure of coagulation, tail bleed time was determined in animals that were diabetic for 20 weeks.
# [2] = tested on: human brain microvascular endothelial cell; assay: Endothelial barrier permeability by transendothelial electrical resistance; type: cell-based; settings: MG with NAC
# Description: Moreover, treatment with 100 μM MG in rat thoracic aortic rings for 24 h decreases acetylcholine-induced vascular relaxation via a reduction in p-eNOS (Ser1177) and p-AMPKα (Thr172). MG can reduce endothelial angiogenesis through RAGE-mediated, ONOO(^−)-dependent and autophagy-induced VEGFR2 degradation. […] This is exacerbated by GSH synthesis inhibition and prevented by NAC. The enhanced MG concentration in diabetic patients can also directly contribute to the platelet dysfunction associated with diabetes. Platelet dysfunction is characterized by hyperaggregability and reduced thrombus stability via potentiating thrombin-induced platelet aggregation and dense granule release, but inhibiting platelet spreading on fibronectin and collagen. Given that endothelial dysfunction and enhanced platelet activation could promote stroke, these studies indicate that MG can contribute to ischemic brain injury.
# brain MG contents = assay: Brain MG by HPLC; type: in vivo, mouse; settings: STZ diabetic mice, NAC 3 weeks
# Description: Tissue contents of MG were also determined by HPLC. The brain tissues were homogenized in the same manner as that for GSH measurement. Homogenates (581 μl) were incubated with 19 μl of 60% perchloric acid at room temperature for 24 h and then centrifuged at 12000 rpm at 4° C. for 10 min. The supernatants were derivatized with 0.1M of o-phenylenediamine for 24 h to produce 2-methylquinoxaline. On the third day, the supernatants were used for measurements of MG contents. Separation of MG derivatives, whose peak was detected at 315 nm wavelength, was performed on a 250×4.6-mm Chromegabond Ultra C-18 reversed phase HPLC column. The contents were quantified using MG standards derivatized with o-phenylenediamine. MG contents were normalized to protein concentrations and expressed as nanomoles per mg protein.
# [3] = tested on: brain GSH and cysteine contents; assay: Brain GSH and cysteine by HPLC; type: in vivo, mouse
# From the text: Four-week-old male C57BL/6J mice, weighing 18-20 g, were purchased from Jackson Laboratory. These mice were maintained at the Animal Facility of the Louisiana State University Health Sciences Center—Shreveport. Animal care and use in the experiments follow the guidelines in the Guide for the Care and Use of Laboratory Animals, published by the US National Institutes of Health. Following adaptation for 1 week, the mice were divided randomly into 4 groups: non-treated sham operation group (NT-sham group, n=6), non-treated I/R group (NT-I/R group, n=5), vehicle I/R group (Veh-I/R group, n=24), and streptozotocin I/R group (STZ-I/R group, n=19). […] On day 7, mice whose plasma glucose was more than 300 mg/dl were deemed to be diabetic. From diabetes onset at week 1, a group of diabetic mice were given 0.2 mM NAC in the drinking water for 3 weeks (n=3; a total of 4 weeks diabetes, 3 weeks NAC) or 1 week (n=9; a total of 2 weeks diabetes, 1 week NAC). Veh-I/R mice were injected with citrate buffer for consecutive 5 days, and a group of Veh-treated mice were given 0.2 mM NAC for 2 weeks in the drinking water before the ischemia operation (Veh+NAC group, n=8). Another Veh-treated mice were injected (intraperitoneally, 12 hr interval) with 0.5M BSO 24 h before the ischemia operation and during the 24 h reperfusion period (Veh+BSO group, n=10). All mice were 9 weeks old at sacrifice.
# Tissue contents of GSH, cysteine and γGC were determined by high-performance liquid chromatography (HPLC). […] Separation of GSH, cysteine and γGC derivatives whose peaks were detected at 365 nm wavelength was performed on a 250×4.6-mm Alltech Lichrosorb NH2 10 μm anion-exchange column. GSH, cysteine and γGC contents were quantified by comparison to standards derivatized in the same manner. Protein pellets were dissolved in 1 M NaOH for protein quantitation and GSH, cysteine and γGC concentrations were expressed as nanomoles per mg protein.
# [4] = tested on: brain protein carbonyl contents; assay: Assay of brain protein carbonyls; type: in vivo, mouse; settings: 2 week diabetic mice, NAC 1 week
# Description: The extent of protein glycation was determined by measuring total protein carbonyl contents. Briefly, the brain homogenate was incubated with 10 mM of 2, 4-dinitro-phenylhydrazine (DNPH) in 2M hydrochloride acid (1:2 volume) for 1 h followed by precipitation with trichloroacetic acid (final concentration 10%). Following centrifugation, the precipitant was washed 3 times with ethanol-ethyl acetate (1:1) to remove free DNPH. The pellets were redissolved in 0.6 ml of 6 M guanidine hydrochloride solution containing 20 mM potassium phosphate (pH=2.3 adjusted with trifluoroacetic acid) at 37° C., and the insoluble materials were removed by centrifugation for 3 min at 11000 g. The absorbance was monitored at 366 nm, and protein carbonyl contents quantified using the extinction coefficient of 22000 M^−1 cm^−1.
structure (smiles),measurement,setting,value
"CC(=O)N[C@@H](CS)C(=O)O [NAC, N-acetylcysteine]",plasma glucose levels,[1],did not alter
same,tail bleed time,STZ diabetic mice,prevented this accelerated coagulation; also recorded: reversed
same,MG-induced endothelial barrier permeability,[2],prevented
same,MG-to-GSH ratio,brain MG contents,significantly decreased
same,brain MG levels,brain MG contents,"a trend for decreased MG, but not significant; also recorded: remained high, although trending lower; also recorded: attenuated"
same,brain GSH concentrations,"[3]; STZ diabetic mice, NAC in drinking water 1 or 3 weeks",significant increases in tissue GSH levels; also recorded: significantly higher; also recorded: increased
same,brain cysteine levels,[3]; vehicle and STZ diabetic mice given NAC,significant decrease; also recorded: significantly decreased
same,brain protein carbonyl contents,[4],highly effective in attenuating; also recorded: decreased significantly; also recorded: significantly attenuated

# — patent US20180036270A1, “A METHOD OF PROTECTING AGAINST CARBONYL STRESS INDUCED ISCHEMIA-REPERFUSION INJURY IN THE DIABETIC BRAIN VIA ADMINISTRATION OF N-ACETYLCYSTEINE” (Board of Supervisors of Louisiana State University and …, priority 2015, published 2018)
